{
  "source": "patent US4512924A",
  "about": "“Pyridazo[1,2-a][1,2]diazepines” (Hoffmann-La Roche Inc., priority 1982, dated 1985)",
  "data": [
    {"target": "T1, angiotensin converting enzyme (Oryctolagus cuniculus, UniProt P12822)", "T1 sequence (P12822 34-1310)": "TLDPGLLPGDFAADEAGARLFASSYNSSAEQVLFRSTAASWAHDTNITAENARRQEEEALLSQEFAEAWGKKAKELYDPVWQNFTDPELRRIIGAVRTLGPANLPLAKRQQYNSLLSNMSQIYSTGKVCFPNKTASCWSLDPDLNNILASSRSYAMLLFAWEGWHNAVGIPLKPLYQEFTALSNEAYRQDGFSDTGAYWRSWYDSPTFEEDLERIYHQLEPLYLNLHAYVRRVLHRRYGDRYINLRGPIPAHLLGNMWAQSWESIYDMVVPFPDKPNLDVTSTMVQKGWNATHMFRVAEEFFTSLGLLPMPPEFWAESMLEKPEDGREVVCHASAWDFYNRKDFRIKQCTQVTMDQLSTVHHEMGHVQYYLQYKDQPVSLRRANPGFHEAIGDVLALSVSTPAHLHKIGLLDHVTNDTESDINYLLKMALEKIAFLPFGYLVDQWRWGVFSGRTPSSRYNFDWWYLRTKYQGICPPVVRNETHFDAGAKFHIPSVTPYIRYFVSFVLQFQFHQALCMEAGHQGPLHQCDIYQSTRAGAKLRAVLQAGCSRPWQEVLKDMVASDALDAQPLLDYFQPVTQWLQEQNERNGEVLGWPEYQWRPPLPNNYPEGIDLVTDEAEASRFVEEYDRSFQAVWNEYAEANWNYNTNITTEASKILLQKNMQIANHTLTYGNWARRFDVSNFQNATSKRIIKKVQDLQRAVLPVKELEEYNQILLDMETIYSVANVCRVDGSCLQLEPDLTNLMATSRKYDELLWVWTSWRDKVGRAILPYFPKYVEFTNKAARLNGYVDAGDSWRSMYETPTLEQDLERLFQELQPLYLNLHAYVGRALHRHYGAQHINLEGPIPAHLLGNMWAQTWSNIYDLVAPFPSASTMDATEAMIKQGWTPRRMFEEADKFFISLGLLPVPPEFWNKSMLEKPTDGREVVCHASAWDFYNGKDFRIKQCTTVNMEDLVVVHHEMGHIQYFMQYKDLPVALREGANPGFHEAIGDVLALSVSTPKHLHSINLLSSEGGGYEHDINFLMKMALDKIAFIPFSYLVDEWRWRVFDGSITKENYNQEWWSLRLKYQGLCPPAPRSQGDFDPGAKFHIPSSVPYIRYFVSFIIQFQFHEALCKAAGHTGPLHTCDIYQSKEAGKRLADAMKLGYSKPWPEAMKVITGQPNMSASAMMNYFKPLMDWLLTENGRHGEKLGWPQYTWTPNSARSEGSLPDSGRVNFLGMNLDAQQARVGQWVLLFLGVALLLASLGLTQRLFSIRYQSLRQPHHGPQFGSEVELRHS", "test": "in vitro inhibition of angiotensin converting enzyme (cleavage of hippuryl-histidyl-leucine)", "type": "biochemical", "details": "hippuryl-histidyl-leucine 2 mM, potassium phosphate buffer pH 8.3, 100 mM, NaCl 300 mM, 24 minutes at 37° C., read-out: IC50 (concentration of test substance which reduces by 50% the cleavage of hippuryl-histidyl-leucine by angiotensin converting enzyme)", "method": "The activity of the present compounds in inhibiting angiotensin converting enzyme in vitro can be determined by the following test.\nThe method used is based on the method of Cushman and Cheung (Biochem. Pharmacol., 20. 1637-1648) incorporating the modifications introduced by Hayakari et al (Anal. Biochem., 84. 361-369). The substrate (hippuryl-histidyl-leucine, 2 mM) is incubated with angiotensin converting enzyme in the presence or absence of various concentrations of test substance in potassium phosphate buffer (pH 8.3; 100 mM) containing sodium chloride (300 mM) for 24 minutes at 37° C. (total value 500 μl). (If the test substance is an ester, it is appropriate to cleave it by means of hog liver esterase before carrying out the test). The reaction is terminated by the addition of 3 ml of potassium phosphate buffer (pH 8.3; 200 mM) at 0° C. 2,4,6-Trichloro-s-triazine (3%) in 1.5 ml of dioxane is added and the mixture is agitated until the yellow chromophore has developed fully. The samples are then centrifuged to remove any precipitate which has formed. The yellow chromophore formed by the reaction of the 2,4,6-trichloro-s-triazine with free hippuric acid is measured spectrophotometrically at 382 nm. IC50 values are defined as the concentration of test substance which reduces by 50% the cleavage of hippuryl-histidyl-leucine by angiotensin converting enzyme under the aforementioned conditions.\nThe results obtained in the foregoing test using representative compounds of formula I as the test substance are compiled in the following Table.", "units": {"IC50": "nM"}, "values": [
      {"compound": "CC(C)CCC(N[C@H]1CCC(=O)N2CCC[C@@H](C(=O)O)N2C1=O)C(=O)O", "note": "(mixture of isomers) [Compound F, 9(S)-[1(R and S)-carboxy-4-methylpentylamino]-octahydro-6,10-dioxo-6H-pyridazo[1,2-a][1,2]diazepine-1(S)-carboxylic acid]", "IC50": 12},
      {"compound": "O=C(O)C(CCc1ccccc1)N[C@H]1CC(=O)N2CCCC(C(=O)O)N2C1=O", "note": "(single isomer, unassigned) [Compound B]", "IC50": 22},
      {"compound": "O=C(O)C(CCc1ccccc1)N[C@H]1CCC(=O)N2CCC[C@@H](C(=O)O)N2C1=O", "note": "(single isomer, unassigned) [Compound A]", "IC50": 4.2},
      {"compound": "O=C(O)C(CCc1ccccc1)NC1CCN2CCCC(C(=O)O)N2C1=O", "note": "(racemic) [Compound C, 8-(1-Carboxy-3-phenylpropylamino)-octahydro-9-oxopyridazo[1,2-a]pyridazine-1-carboxylic acid]", "IC50": 55},
      {"compound": "O=C(O)C(Cc1ccccc1)N[C@H]1CCC(=O)N2CCC[C@@H](C(=O)O)N2C1=O", "note": "(mixture of isomers) [Compound E, 9(S)-[1(R and S)-carboxy-2-phenylethylamino]-octahydro-6,10-dioxo-6H-pyridazo[1,2-a][1,2]diazepine-1(S)-carboxylic acid]", "IC50": 26},
      {"compound": "O=C(O)C(CCCc1ccccc1)N[C@H]1CCC(=O)N2CCC[C@@H](C(=O)O)N2C1=O", "note": "(mixture of isomers) [Compound D, 9(S)-[1(R and S)-carboxy-4-phenylbutylamino]-octahydro-6,10-dioxo-6H-pyridazo[1,2-a][1,2]diazepine-1(S)-carboxylic acid]", "IC50": 11}
    ]}
  ]
}
